Columns and labels:
[1] = tested on: human esophageal squamous cell carcinoma cells (KYSE30, KYSE270, KYSE140, KYSE520, KYSE150, KYSE 1170); assay: Live cell imaging in cultured esophageal cancer cells; assay type: cell-based; details: FIG. 5
Method: Imaging was conducted over time after adding GP-HMRG (compound 1) to six types of human esophageal squamous cell carcinoma cells.
As human esophageal squamous cell carcinoma cells, two highly differentiated types (KYSE30, KYSE270), two moderately differentiated types (KYSE140, KYSE520), and two lowly differentiated types (KYSE150, KYSE 1170) were cultured for two days at 37° C., 5% CO2 using a μ-Slide 8 well.

DPP-IV = DPP-IV (Homo sapiens, UniProt P27487); assay: DPP-IV assay by fluorescent probe (absorption/fluorescence change, HPLC); assay type: biochemical
Method: Next, DPP-IV was caused to act on compound 1, and the changes in the absorption spectrum and fluorescence spectrum were measured. The results are shown in FIG. 1 (the concentration of compound 1 was 3.5 μM).
Similarly, DPP-IV was caused to act on compound 1, and analysis was conducted by HPLC chromatography.
In addition to compound 1, fluorescence assays were conducted on compounds 2-6 synthesized in the same way in Example 1. For the solution conditions, a solution comprising 18 μL of solution comprising a fluorescent probe concentration of 1.1 μM and 20 mM Tris HCl buffer (pH 7.1), and 2 μL of solution comprising DPP-IV and 20 mM Tris HCl buffer was used. The results obtained by adding DPP-IV to each solution containing a fluorescent probe and measuring the increase in the fluorescence intensity are shown in FIGS. 3 and 4 (excitation wavelength 501 nm, fluorescence wavelength 524 nm). FIG. 3 is a graph snowing the fluorescence intensity increase rate six minutes after DPP-IV addition; FIG. 4 is a graph plotting the time dependence of the fluorescence intensity.

[2] = Absorption and fluorescence spectra of probe and HMRG; assay type: physicochemical
Description: The absorption spectra and fluorescence spectra of compound 1 (GP-HRMG) having a glycine-proline dipeptide site synthesized in Example 1 and hydroxymethyl rhodamine green (HRMG) not having a dipeptide site were each measured.

[3] = tested on: human esophageal cancer surgical specimens and ESD specimens; assay: Imaging of human esophageal surgical specimens and ESD specimens; details: surgical specimen; probe 50 μM with DPP-IV inhibitor, adhered five minutes; FIG. 10
Method: Esophageal specimens from patients who underwent surgery and endoscopic submucosal dissection (ESD) for esophageal cancer were brought immediately after removal in each treatment (meaning surgical specimens and ESD specimens, respectively) to an imaging room, and imaging was conducted over time after spraying the specimens directly with various fluorescent probes (compounds 1-6). For surgical specimens, 10 μL of a DMSO solution (10 mM) of the various fluorescent probes was dissolved in 2 mL of RPMI 1640 (phenol red-free) (final probe concentration 50 μM), and imaging was conducted using a Maestro In Vivo Imaging System Ex after spraying the fluorescent probe on the specimen using a spray tube for an endoscope. For ESD specimens, 3 μL of a DMSO solution (10 mM) of the various fluorescent probes was dissolved in 600 μL of RPMI 1640 (phenol red-free) (final probe concentration 50 μM), and imaging was conducted using a Maestro In Vivo Imaging System Ex after adding the fluorescent probe dropwise to the specimen.
Specifically, gauze impregnated with 5 μL of a DMSO solution (10 mM) of EP-HMRG (compound 2) dissolved in 1 mL of RPMI 1640 (phenol red-free) (final probe concentration 50 μM) and gauze impregnated with 5 μL of a DMSO solution (10 mM) of EP-HMRG (compound 2) and 5 μL of a DPP-IV inhibitor (10 mM) dissolved in 1 mL of RPMI 1640 (phenol red-free) were used. […]

Chain of DPP-IV (P27487 whole entry, species assumed): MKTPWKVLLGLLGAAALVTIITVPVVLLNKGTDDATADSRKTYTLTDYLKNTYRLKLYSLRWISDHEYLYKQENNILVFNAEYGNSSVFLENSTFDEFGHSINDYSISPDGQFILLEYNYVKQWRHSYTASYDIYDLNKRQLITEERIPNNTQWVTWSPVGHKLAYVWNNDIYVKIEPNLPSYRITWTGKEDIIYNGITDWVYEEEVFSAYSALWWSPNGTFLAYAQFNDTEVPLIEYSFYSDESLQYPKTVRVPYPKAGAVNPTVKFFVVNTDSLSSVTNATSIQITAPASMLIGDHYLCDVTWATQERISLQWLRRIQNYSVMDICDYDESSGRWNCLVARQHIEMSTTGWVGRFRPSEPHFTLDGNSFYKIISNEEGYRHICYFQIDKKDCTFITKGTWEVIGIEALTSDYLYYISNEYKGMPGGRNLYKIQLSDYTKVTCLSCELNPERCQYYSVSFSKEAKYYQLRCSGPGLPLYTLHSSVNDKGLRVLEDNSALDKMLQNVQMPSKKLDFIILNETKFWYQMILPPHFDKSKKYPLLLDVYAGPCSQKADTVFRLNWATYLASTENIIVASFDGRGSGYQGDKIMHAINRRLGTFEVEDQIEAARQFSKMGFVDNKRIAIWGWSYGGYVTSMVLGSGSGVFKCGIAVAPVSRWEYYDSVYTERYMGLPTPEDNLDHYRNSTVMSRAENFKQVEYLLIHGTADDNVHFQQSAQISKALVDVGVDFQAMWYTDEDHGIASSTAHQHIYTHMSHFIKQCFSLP

Row | Molecule | Fluorescence intensity in live cells with DPP-IV inhibitor added ([1]; probe 5 μM + 100 μM DPP-IV inhibitor, 60 minutes) | Fluorescence intensity in live cells over time ([1]; probe 10 μM, observed 60 minutes, six cell lines) | HPLC analysis after reaction with DPP-IV (DPP-IV; FIG. 2) | Change in absorption and fluorescence spectrum on addition of DPP-IV (DPP-IV; compound concentration 3.5 μM, FIG. 1) | Maximum absorption wavelength [2] [nm] | Maximum fluorescence wavelength [2] [nm] | pKcycl [2] | Structure form under neutral conditions ([2]; neutral conditions) | Molar extinction coefficient at pH 7.4 [2] | Fluorescence intensity in tumor areas with DPP-IV inhibitor [3] | Fluorescence quantum yield [2]
1 | NCC(=O)N1CCC[C@H]1C(=O)Nc1ccc2c(c1)Oc1cc(N)ccc1C21OCc2ccccc21 (stereo partly drawn) [Compound 1] | fluorescence intensity was lower with the probe with inhibitor added | increase in fluorescence intensity was seen over time in all of the cells | hydrolyzed and cleaved by DPP-IV | increase in the absorbance and fluorescence intensity | 496 | 527 | 5.0 | present mainly in a colorless, non-fluorescent, closed-ring structure | 300 M^−1cm^−1 | – | –
2 | Nc1ccc2c(c1)Oc1cc(NC(=O)[C@@H]3CCCN3C(=O)[C@@H](N)CCC(=O)O)ccc1C21OCc2ccccc21 (stereo partly drawn) [Compound 2] | – | – | – | – | – | – | – | – | – | increase in fluorescence intensity was not seen in tumor areas | –
3 | hydroxymethyl rhodamine green [HMRG, reference compound] | – | – | – | – | 501 | 524 | 8.1 | – | 57,000 M^−1cm^−1 | – | 0.81

Source: patent publication US10383956B2, “Fluorescent probe for detecting dipeptidyl peptidase IV” (The University of Tokyo, priority 2014, dated 2019)
